For 79 compounds, RP-LC retention time results are on record in the METLIN SMRT retention time set (Domingo-Almenara et al. 2019).

This data set in a line: gradient 5% acetonitrile 3 min, to 50% in 2 min, to 85% in 15 min, held 3 min, 100 µL/min. Conditions: column: Zorbax Extend-C18 2.1 x 50 mm; eluents: water / acetonitrile, 0.1% formic acid. The procedure, abridged: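 Retention time was recorded from adduct peaks, which were picked computationally and each inspected manually. Pure standards ran in mixtures of ~100 molecules on HPLC coupled to a quadrupole time-of-flight mass spectrometer, in positive and negative ionization mode, through a Zorbax Extend-C18 column (2.1 × 50 mm, 1.8 μm) at 100 μL/min. Eluents were water and acetonitrile, each with 0.1% formic acid.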
As for `Cc1ccc(Cn2cc(-c3ccncc3)cc2C(=O)N2CCN(CC(C)C)CC2)cc1`, the RP-LC retention time came out at 582 s.
Under `COc1ccccc1N1CCN(CCCNS(=O)(=O)c2ccc3c(c2)CCCC(=O)N3)CC1` stands 616 s; under `CCOC(=O)c1c(C)n(Cc2ccco2)c2ccc(OC)cc12`, 1050 s.
As to `CCN1C(=O)c2c(C(=O)NCc3cccc(F)c3)ncn2CC1(C)C(=O)NC1CCCC1` (centres undefined), the RP-LC retention time turned out to be 762 s.
Consider `CCCS(=O)(=O)N1CCCC(Cn2cc(COc3ccc4c(c3)CCC4)nn2)C1` (centres undefined), for which the RP-LC retention time was found to be 997 s.
The figure for `O=C(Cc1ccccc1F)NCCc1nc(-c2ccc3c(c2)OCO3)n[nH]1` is 687 s; for `CC(C)n1cnc2cc(CNC(=O)c3ccco3)ccc21` it is 568 s; for `Cc1ncsc1CN1CCn2c(nnc2[C@@H]2C[C@@H](O)CN2Cc2cccnc2)C1` it is 544 s.
In turn, `O=C(c1ccc(-c2noc(C3CCC3)n2)cc1)N1CCCC1` registered an RP-LC retention time of 879 s.
With `N#Cc1ccccc1CN1CCCC(N2CCCC2)C1=O` (centres undefined), the RP-LC retention time turned out to be 574 s.
Regarding `CC1=NS(=O)(=O)N(Cc2ccccc2)C=C1C(=O)OCc1ccc(C)cc1C`, the RP-LC retention time is 1220 s.
In turn, `Cc1cccc(NC(=O)Cn2nc(N3CCC(C)CC3)c3ccccc3c2=O)c1` showed an RP-LC retention time of 1160 s.
Compound `Cc1ccsc1CN1CC(Oc2ccccc2C(=O)NC2CC2)C1` came in with an RP-LC retention time of 615 s.
In turn, `CN(C)c1cc(N2CCCC(NC(=O)c3cccn3C)C2)ncn1` (centres undefined) came in with an RP-LC retention time of 571 s.
Under `CC(=O)Nc1ccc(NC(=O)c2ccc3nc(-c4ccc(Cl)cc4)cn3c2)cc1` stands 677 s.
Take `Cc1cc(-c2nn3c(COc4ccccc4)nnc3s2)no1`: the RP-LC retention time is 855 s.
`O=c1ccc(-c2ccccc2)nn1Cc1nc(-c2ccc(Cl)cc2)no1` came in with an RP-LC retention time of 1080 s.
As to `CCCCS(=O)(=O)c1cc2c(cc1NC(=O)c1ccccc1C)n(C)c(=O)n2C`, the RP-LC retention time was determined as 853 s.
`CSc1ccc(NC(=O)N2CCN(c3cnn4c(C)nnc4c3)CC2)cc1` yielded an RP-LC retention time of 576 s.
In turn, `COc1ccc(CN(C)Cc2cc(=O)c3cc(C)ccc3[nH]2)cc1` registered an RP-LC retention time of 603 s.
The figure for `CCC(=O)NC(C)c1nc(-c2ccccc2OC)no1` (centres undefined) is 665 s; for `Cc1ccc(-n2c(N3CCCC(C(=O)NCc4cccs4)C3)nc3ccsc3c2=O)cc1` (centres undefined) it is 880 s; for `O=C(Cc1c[nH]c2ccccc12)NCCc1c[nH]c2ccc(Cl)cc12` it is 857 s.
Under `CCNC(=O)N1CCCC(c2cccc(C(=O)NC3CCCCCC3)c2)C1` (centres undefined) stands 876 s; under `COc1cccc(S(=O)(=O)N2CCc3c(c(-c4nnc(-c5ccccc5F)o4)nn3C)C2)c1`, 916 s.
`Fc1ccc(-c2nnc(Cc3nc(-c4ccccc4Cl)no3)o2)cc1` displayed an RP-LC retention time of 995 s.
Under `COC(=O)c1ncn2c1C(=O)N(c1ccc(F)cc1C)C(C)(C(=O)NCc1ccccc1)C2` (centres undefined) stands 708 s; under `CCCN1CCN(C(=O)C(C)C2CCN(S(=O)(=O)c3ccc(Br)s3)CC2)CC1` (centres undefined), 689 s.
The figure for `CN(C)N1C(=O)c2c(Cl)c(Cl)c(Cl)c(Cl)c2C1=O` is 1080 s; for `Cc1csc(-c2cc(S(=O)(=O)Nc3ccc(F)cc3Cl)c(C)s2)n1` it is 1040 s.
On to `COC(=O)C1=CN(c2cccc(F)c2)c2cc(F)ccc2S1(=O)=O`, for which the RP-LC retention time was found to be 869 s.
As for `CCOC(=O)C1CCN(C(=O)c2cn(-c3cc(N4CCSCC4)ncn3)cn2)CC1`, the RP-LC retention time worked out at 791 s.
The figure for `Cc1ccccc1C(=O)Nc1ccccc1NC(=O)C1CCC1` is 795 s; for `CN1C(=O)c2cccn2CC1CNC(=O)c1[nH]nc2c1COc1ccccc1-2` (centres undefined) it is 685 s; for `Cc1cccc(C)c1NC(=O)Cn1nc2nc(N3CCCC(C)C3)ccn2c1=O` (centres undefined) it is 787 s.
`O=c1c(O[C@@H]2OC([C@H](O)CO)[C@H](O)[C@H]2O)c(-c2ccc(O)c(O)c2)oc2cc(O)cc(O)c12` (some centres undefined) yielded an RP-LC retention time of 641 s.
In turn, `O=C(Nc1ccc2c(c1)N(C(=O)c1ccco1)CC2)c1ccc2c(c1)OCO2` returned an RP-LC retention time of 770 s.
`Cc1noc(-c2cc(=O)n(CC(=O)Nc3ccc(C(C)C)cc3)c3ccccc23)n1`: the RP-LC retention time was 1020 s.
Under `CCc1ccccc1S(=O)(=O)Nc1ccc2c(c1)nc(-c1ccc(C(=O)N(CC)CC)cc1)n2C` stands 739 s; under `CC(=O)c1cccc(NC(=O)Cn2cncc(C)c2=O)c1`, 598 s; under `CN1C(=O)c2cccnc2Sc2cc(NC(=O)C(C)(C)C)ccc21`, 735 s.
The figure for `CCOC(=O)N1CCN(C(=O)Cc2csc(NC(=O)c3cnccn3)n2)CC1` is 598 s; for `CC(C)C(=O)NCc1cnn(-c2ccc(C(=O)NCC3CCCO3)cc2)c1` (centres undefined) it is 640 s; for `CC1CCN(S(=O)(=O)c2nn(C)cc2C(=O)NCC(C)c2ccccc2)CC1` (centres undefined) it is 1030 s.
In turn, `CCOc1ccccc1CNC(=O)C1CCCN(c2nnc3ccc(Cl)cn23)C1` (centres undefined) displayed an RP-LC retention time of 826 s.
The figure for `CNC(=O)CCc1nc2ccccc2n(CC(=O)NCc2ccccc2Br)c1=O` is 700 s; for `O=S(=O)(c1cccnc1)N1CCCCC1c1nncn1CC1CC1` (centres undefined) it is 662 s; for `O=C(Cn1c(=O)c(S(=O)(=O)c2ccccc2)cc2ccccc21)NC1CCCCC1` it is 894 s.
In turn, `Cn1nc(C(=O)N2CCCC2)c2c1CCN(C(=O)CCC(=O)N1CCN(c3ccccn3)CC1)C2` returned an RP-LC retention time of 579 s.
In turn, `CCOC(=O)C1=C(C)NC2=C(C(=O)C(C(=O)OC)C(C)C2)C1c1ccc(OC)cc1` (centres undefined) showed an RP-LC retention time of 860 s.
Under `COC(=O)C(C)NC(=O)N1CCC2(CC1)Nc1cc(F)ccc1-n1cccc12` (centres undefined) stands 865 s; under `COc1ccc(NC(=O)Cc2c(C)nn(-c3nc(-c4ccc(Cl)cc4)cs3)c2C)c(OC)c1`, 1230 s; under `C=CCn1c(C)c(CC(=O)Nc2ccc(F)cc2)c(=O)n2nc(-c3ccc(C)cc3)nc12`, 945 s.
The compound `CCc1ccccc1N1C(=O)c2c(C(=O)OC)ncn2CC1(C)C(=O)NC1CCCC1` (centres undefined) had an RP-LC retention time of 733 s.
`CCOc1ccc(C(C)NC(=O)c2c(C)sc3ccn(CC)c(=O)c23)cc1` (centres undefined) came in with an RP-LC retention time of 872 s.
The figure for `c1ccc(-c2noc(-c3ccc(OC4CNC4)cc3)n2)cc1` is 674 s; for `Cc1noc(C)c1S(=O)(=O)NCCn1c(C)cnc1-c1ccncc1` it is 570 s.
The figure for `CCC1Oc2ccc(S(=O)(=O)N3CCC(C(=O)Nc4ccc(C)cc4)CC3)cc2NC1=O` (centres undefined) is 903 s; for `CCOC(=O)C1=C(C)NC(C)=C(C(=O)OCC)C1c1ccncc1` it is 564 s; for `O=C(Cn1nc2n(c1=O)CCCC2)Nc1ccc(Cl)cc1` it is 688 s.
The figure for `COc1ccc(-c2nc(COc3cc(C)c4c(C)nn(C)c4n3)c(C)o2)cc1` is 1120 s.
For `COc1ccc(C)c2sc(NS(=O)(=O)c3ccc(C)cc3)nc12`, the RP-LC retention time was found to be 870 s.
Under `COCCn1c(CCCC(=O)NCc2ccccn2)nc2cccnc21` stands 545 s; under `COc1ccc(-c2nnc(-c3ccccc3)o2)cc1S(=O)(=O)N1CCCC1`, 908 s; under `CCC(=O)N(C1CCOCC1)C1CCN(Cc2cn(CC)c3ccccc23)CC1`, 674 s.
In turn, `CCc1cc(=O)n(CC(=O)Nc2cc(Cl)ccc2C)c(N2CCOCC2)n1` displayed an RP-LC retention time of 771 s.
As to `O=C(c1ccoc1)N1CCC2(CC1)N=C(c1cccc(Br)c1)NO2`, the RP-LC retention time was 763 s.
On to `O=C1CC2(CCCC2)CC(=O)N1CCNCC1COc2ccccc2O1` (centres undefined), for which the RP-LC retention time amounted to 747 s.
Under `Cc1cc([N+](=O)[O-])ccc1NS(=O)(=O)c1cc(Cl)ccc1Cl` stands 1020 s.
The figure for `CCOc1ccc(-c2noc(Cn3c(=O)n(-c4ccc(C)cc4)c(=O)c4sccc43)n2)cc1OC` is 987 s.
As to `CCc1ccc(S(=O)(=O)NCCc2cn(C)c3ncccc23)cc1`, the RP-LC retention time came to 786 s.
Under `O=C(NCc1ccco1)c1c(O)c2cccnc2n(Cc2ccccc2)c1=O` stands 1250 s; under `Cn1cnc2cc(-c3noc(CNC(=O)c4ccccc4)n3)ccc21`, 614 s; under `CCCCNC(=O)CCC(=O)N1CCCn2nc(-c3cn(C)c4ccccc34)cc21`, 778 s.
The figure for `CCCNC(=O)N1CCC(c2noc(-c3ccncc3)n2)C1` (centres undefined) is 642 s; for `COc1ccc(OC)c(NS(=O)(=O)c2cc(-c3cc(C(F)(F)F)on3)sc2C)c1` it is 1130 s; for `COc1ccc(C(=O)N2CCC(c3noc(-c4cnccn4)n3)C2)cn1` (centres undefined) it is 790 s.
Under `CCCCN1C(=O)c2ccccc2C(C(=O)NCc2ccncc2)C12CCCCC2` (centres undefined) stands 662 s; under `CCOc1ccccc1NC(=O)Cn1nc2c(Oc3ccccc3C)nccn2c1=O`, 935 s.
